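Exposure lasted 48 hours, with cells grown in 96-well plates and compounds tested at five concentrations. GI50: concentration for 50% inhibition of growth.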 Activity calls are given as the source filed them. Rule as the data show it: active = GI50 up to about 1.1 µM and inactive = higher.
How the values were obtained:
Assay in all cases: inhibition of tumour cell growth, NCI panel, 48 h
786-0 = system: 786-0
ACHN = system: ACHN
CCRF-CEM = system: CCRF-CEM
DMS-273 = system: DMS-273
HOP-62 = system: HOP-62
HOP-92 = system: HOP-92
HT-29 = system: HT-29
LOX IMVI = system: LOX IMVI
M14 = system: M14
NCI-H460 = system: NCI-H460
OVCAR-5 = system: OVCAR-5
OVCAR-8 = system: OVCAR-8
RPMI-8226 = system: RPMI-8226
RXF 393 = system: RXF 393
SK-MEL-28 = system: SK-MEL-28
SK-MEL-5 = system: SK-MEL-5
SK-OV-3 = system: SK-OV-3
SW-620 = system: SW-620
TK-10 = system: TK-10

SMILES	GI50 (786-0)	GI50 (ACHN)	GI50 (CCRF-CEM)	GI50 (DMS-273)	GI50 (HOP-62)	GI50 (HOP-92)	GI50 (HT-29)	GI50 (LOX IMVI)	GI50 (M14)	GI50 (NCI-H460)	GI50 (OVCAR-5)	GI50 (OVCAR-8)	GI50 (RPMI-8226)	GI50 (RXF 393)	GI50 (SK-MEL-28)	GI50 (SK-MEL-5)	GI50 (SK-OV-3)	GI50 (SW-620)	GI50 (TK-10)
O=C1COc2cc(NC(=S)Nc3ccccc3)ccc2N1	> 100 µM (inactive)	> 100 µM (inactive)	> 100 µM (inactive)	> 100 µM (inactive)	> 100 µM (inactive)	> 100 µM (inactive)	> 100 µM (inactive)	> 100 µM (inactive)	> 100 µM (inactive)	> 100 µM (inactive)	> 100 µM (inactive)	> 100 µM (inactive)	> 100 µM (inactive)	> 100 µM (inactive)	> 100 µM (inactive)	> 100 µM (inactive)	> 100 µM (inactive)	> 100 µM (inactive)	> 100 µM (inactive)
NC1=C(Br)C(=O)c2ncccc2C1=O	1.51 µM (inactive)	0.406 µM (active)	1.4 µM (inactive)	0.352 µM (active)	0.632 µM (active)	1.45 µM (inactive)	1.69 µM (inactive)	0.137 µM (active)	0.673 µM (active)	0.393 µM (active)	1.95 µM (inactive)	0.531 µM (active)	0.942 µM (active)	0.258 µM (active)	0.34 µM (active)	0.284 µM (active)	1.81 µM (inactive)	0.466 µM (active)	2.62 µM (inactive)
COc1ccc(/C(Cl)=C(\C=N/O)c2ccc(OC)c(OC)c2)cc1OC	> 100 µM (inactive)	> 100 µM (inactive)	> 100 µM (inactive)	> 100 µM (inactive)	49.8 µM (inactive)	63.4 µM (inactive)	> 100 µM (inactive)	> 100 µM (inactive)	51.3 µM (inactive)	> 100 µM (inactive)	> 100 µM (inactive)	> 100 µM (inactive)	> 100 µM (inactive)	> 100 µM (inactive)	> 100 µM (inactive)	> 100 µM (inactive)	> 100 µM (inactive)	> 100 µM (inactive)	> 100 µM (inactive)
Cc1ccccc1C(=O)N1CCN(C(=O)c2ccccc2C)CC1	> 100 µM (inactive)	> 100 µM (inactive)	> 100 µM (inactive)	> 100 µM (inactive)	> 100 µM (inactive)	> 100 µM (inactive)	> 100 µM (inactive)	> 100 µM (inactive)	> 100 µM (inactive)	> 100 µM (inactive)	> 100 µM (inactive)	> 100 µM (inactive)	> 100 µM (inactive)	> 100 µM (inactive)	> 100 µM (inactive)	> 100 µM (inactive)	> 100 µM (inactive)	> 100 µM (inactive)	> 100 µM (inactive)
